Test results published in US9447136B2, “Semisynthetic derivatives of Nystatin A1” (BLIRT S.A., priority 2012, dated 2016).
Converted amounts (≈) assume the structure as drawn. Like-named read-outs stand apart in the source and are kept apart here.

Columns and labels:
[1] = system: Aspergillus niger LOCK E201; assay: Antifungal activity in vitro, serial dilution in RPMI 1640; assay type: cell-based; conditions: Table 2B
In short: (§1)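 Optical density at 531 nm served as the growth read-out after serial dilution of compound in RPMI 1640 buffered to pH 7.0 per the NCCLS M27-A2 standard. IC50 values came from concentration–A531 plots (50% of control), MIC values from the lowest concentration holding A531 at no more than 20% of control.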

[2] = system: Candida albicans ATCC 10231; assay: as above; assay type: cell-based; conditions: for Antifungal activity Candida albicans ATCC 10231 IC50 / Antifungal activity Candida albicans ATCC 10231 MIC: Table 2A, RPMI 1640, pH 7.0; for Antifungal activity Candida albicans ATCC 10231 IC50: A531 50% of control; for Antifungal activity Candida albicans ATCC 10231 MIC: A531 at most 20% of control; for MIC Candida albicans ATCC 10231: Table 2B
In short: as §1

Candida arborea KKP 319 = assay: as above; assay type: cell-based; conditions: Table 2B
In short: as §1

[3] = system: Candida dubliniensis CBS 7987; assay: as above; assay type: cell-based; conditions: Table 2B
In short: as §1

[4] = system: Candida glabrata DSM 11226; assay: as above; assay type: cell-based; conditions: Table 2A; RPMI 1640, pH 7.0
In short: as §1

Candida krusei DSM 6128 = assay: as above; assay type: cell-based; conditions: Table 2A; RPMI 1640, pH 7.0
In short: as §1

[5] = system: Candida lipolytica KKP 322; assay: as above; assay type: cell-based; conditions: Table 2B
In short: as §1

[6] = system: Candida parapsilosis DSM 5784; assay: as above; assay type: cell-based; conditions: Table 2B
In short: as §1

[7] = system: Candida pseudotropicalis KKP 324; assay: as above; assay type: cell-based; conditions: Table 2B
In short: as §1

[8] = system: Candida quilliermondii DSM 11947; assay: as above; assay type: cell-based; conditions: Table 2B
In short: as §1

[9] = system: Candida stellatoidea CBS 1905; assay: as above; assay type: cell-based; conditions: Table 2B
In short: as §1

[10] = system: Candida tropicalis KKP 334; assay: as above; assay type: cell-based; conditions: Table 2A; RPMI 1640, pH 7.0
In short: as §1

[11] = system: Saccharomyces cerevisiae ATCC 9763; assay: as above; assay type: cell-based; conditions: for Antifungal activity Saccharomyces cerevisiae ATCC 9763 MIC: Table 2A, RPMI 1640, pH 7.0, A531 at most 20% of control; for MIC Saccharomyces cerevisiae ATCC 9763: Table 2B
In short: as §1

[12] = system: Trichoderma viride LOCK E159; assay: as above; assay type: cell-based; conditions: Table 2B
In short: as §1

Human erythrocytes = assay: Hemotoxicity (hemolytic activity)
In short: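 Human erythrocytes in saline (2×10^7/ml) were incubated with serially diluted compound at 37 °C for 30 min, then centrifuged. Released hemoglobin was read as A540 against 0.1% Triton X-100 as full hemolysis. EH50 is the interpolated concentration giving 50% of the control A540.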

Candida albicans 5674 = assay: Antifungal activity towards resistant (MDR) strains; assay type: cell-based; conditions: C. albicans 5674 overexpressing CDR1 and CDR2
Experimental: (§2) The determination of antifungal activity was performed by the serial dilutions method in buffered RPMI 1640 medium, in a 96-wells microplates, according to the standard procedure (National Committee for Clinical Laboratory Standards. Reference method for broth dilution antifungal susceptibility testing of yeast, approved standard, 2nd ed. M27-A2 vol. 22 Wayne, Pa., 2002). The optical density of cells suspension was measured using a microplates reader (Victor^3, Perkin-Elmer) at the wavelength λ=660 nm (A660). On the basis of received results the diagrams on interrelation between the A660 value and the concentration of tested compound were made. From these graphs MIC values were read, that are the concentrations of tested compounds, in the presence at which A660 value is at most 20% of A660 value measured in control sample.

Candida albicans B3 = assay: as above; assay type: cell-based; conditions: fluconazole sensitive, parent strain for B4
Experimental: as §2

Candida albicans B4 = assay: as above; assay type: cell-based; conditions: fluconazole-resistant due to the overexpression of CaMDR1
Experimental: as §2

Candida albicans F2 = assay: as above; assay type: cell-based; conditions: fluconazole sensitive, parent strain for F5
Experimental: as §2

Candida albicans F5 = assay: as above; assay type: cell-based; conditions: fluconazole-resistant due to the overexpression of CaMDR1 and ERG11
Experimental: as §2

Candida albicans Gu4 = assay: as above; assay type: cell-based; conditions: fluconazole sensitive, parent strain for Gu5
Experimental: as §2

Candida albicans Gu5 = assay: as above; assay type: cell-based; conditions: fluconazole-resistant due to the overexpression of CDR1 and CDR2
Experimental: as §2

Candida albicans STY19 = assay: as above; assay type: cell-based; conditions: 5674 mutant derivative, deletion of CDR1
Experimental: as §2

Candida albicans STY31 = assay: as above; assay type: cell-based; conditions: 5674 mutant derivative, deletion of CDR1 and CDR2
Experimental: as §2

Candida albicans STY7 = assay: as above; assay type: cell-based; conditions: 5674 mutant derivative, deletion of CDR2
Experimental: as §2

CCRF-CEM = assay: Cytotoxic activity against mammalian cells in tissue culture (MTT); assay type: cell-based, human
Experimental: (§3) For examinations were used selected cell lines: CCRF-CEM—human acute lymphoblastic leukemia; HepG2—human malignant hepatoma; LLC-PK1—epithelial cell of pig kidney; All lines were from ATCC collection.
(§4) The study are conducted using described below methods of culturing and determination of cytotoxic activity.
(§5) CCRF-CEM cells were cultured in medium RPMI 1640+10% fetal bovine serum (FBS), LLC-PK1 cells in medium Medium 199+3% FBS, HepG2 cells in medium MEM+10% FBS. All media contained 100 μg/ml of penicillin G and streptomycin. 24-wells microplates containing appropriate medium were inoculated with the cells in amount of 1.2×10^4 cells/well and allowed to stand overnight. Next, tested compounds as solution in dimethylsulfoxide (DMSO) were added in volume of 10 μl (serial 2× dilutions). To control well 10 μl of DMSO was added. Microplates with cell suspensions were incubated for 120 h at temperature 37° C. at atmosphere of 95%/5% CO2. After incubation, to all wells 200 μl of solution of 3-(4,5-dimethylthiazole-2-yl)-2,5-diphenylotetrazole bromide (MTT) in PBS (4 mg/ml) was added and plates were further incubated for 4 h at 37° C. Next, to dissolve crystals of formazane 1 ml of DMSO was added and absorption of solutions was measured at the wavelength λ=540 nm (A540), using a microplates reader (Victor^3, Perkin-Wallac). […] From these graphs IC50 values were read, that is concentration of tested compound in the presence at which A540 value is half of A540 value measured in the control sample.

HepG2 = assay: as above; assay type: cell-based, human
Experimental: as §3, §4, §5

LLC-PK1 = assay: as above; assay type: cell-based, pig
Experimental: as §3, §4, §5

Row | Compound | MIC Aspergillus niger LOCK E201 [1] [µg/mL] | Antifungal activity Candida albicans ATCC 10231 IC50 [2] [µg/mL] | Antifungal activity Candida albicans ATCC 10231 MIC [2] [µg/mL] | MIC Candida albicans ATCC 10231 [2] [µg/mL] | MIC Candida arborea KKP 319 (Candida arborea KKP 319) [µg/mL] | MIC Candida dubliniensis CBS 7987 [3] [µg/mL] | Antifungal activity Candida glabrata DSM 11226 MIC [4] [µg/mL] | Antifungal activity Candida krusei DSM 6128 MIC (Candida krusei DSM 6128) [µg/mL] | MIC Candida lipolytica KKP 322 [5] [µg/mL] | MIC Candida parapsilosis DSM 5784 [6] [µg/mL] | MIC Candida pseudotropicalis KKP 324 [7] [µg/mL] | MIC Candida quilliermondii DSM 11947 [8] [µg/mL] | MIC Candida stellatoidea CBS 1905 [9] [µg/mL] | Antifungal activity Candida tropicalis KKP 334 MIC [10] [µg/mL] | Antifungal activity Saccharomyces cerevisiae ATCC 9763 MIC [11] [µg/mL] | MIC Saccharomyces cerevisiae ATCC 9763 [11] [µg/mL] | MIC Trichoderma viride LOCK E159 [12] [µg/mL] | MIC Candida albicans 5674 (Candida albicans 5674) [µg/mL] | MIC Candida albicans B3 (Candida albicans B3) [µg/mL] | MIC Candida albicans B4 (Candida albicans B4) [µg/mL] | further results
1 | CC1OC(O[C@H]2/C=C/C=C/C=C/C=C/CC/C=C/C=C/[C@H](C)[C@@H](O)[C@@H](C)[C@H](C)OC(=O)C[C@H](O)C[C@H](O)C[C@H](O)CC[C@@H](O)[C@H](O)CC3(O)C[C@H](O)[C@@H](C(=O)O)[C@H](C2)O3)C(O)C(NC(=O)[C@H](N)CCC(=O)OC(C)(C)C)C1O (stereo partly drawn) [Compound N37, N-D-(O-tert-butyl)glutamylnystatin A1] | 16 (≈ 14.4 µM) | 2.73 | 4 | 4 (≈ 3.6 µM) | 32 (≈ 28.8 µM) | 8 (≈ 7.2 µM) | 8 | 8 | 16 (≈ 14.4 µM) | 16 (≈ 14.4 µM) | 8 (≈ 7.2 µM) | 16 (≈ 14.4 µM) | 8 (≈ 7.2 µM) | 4 | 4 | 4 (≈ 3.6 µM) | 32 (≈ 28.8 µM) | 32 (≈ 28.8 µM) | 8 (≈ 7.2 µM) | 8 (≈ 7.2 µM) | % of hemolysis at the concentration 60 μg ml^−1 (Human erythrocytes): 0.04%; MIC Candida albicans F2 (Candida albicans F2): 16 µg/mL (≈ 14.4 µM); MIC Candida albicans F5 (Candida albicans F5): 16 µg/mL (≈ 14.4 µM); MIC Candida albicans Gu4 (Candida albicans Gu4): 8 µg/mL (≈ 7.2 µM); MIC Candida albicans Gu5 (Candida albicans Gu5): 8 µg/mL (≈ 7.2 µM); MIC Candida albicans STY19 (Candida albicans STY19): 32 µg/mL (≈ 28.8 µM); MIC Candida albicans STY31 (Candida albicans STY31): 32 µg/mL (≈ 28.8 µM); MIC Candida albicans STY7 (Candida albicans STY7): 32 µg/mL (≈ 28.8 µM); Cytotoxicity IC50 CCRF-CEM (CCRF-CEM): >100 µg/mL; Cytotoxicity IC50 HepG2 (HepG2): >100 µg/mL; Cytotoxicity IC50 LLC-PK1 (LLC-PK1): 85.5 ± 4.30 µg/mL
2 | N-[L-(N,N-dimethyl)phenylalanyl]nystatin A1 [Compound N45] | 8 | 2.83 | 4 | 4 | 8 | 2 | 4 | 8 | 8 | 4 | 4 | 4 | 4 | 4 | 2 | 2 | 16 | 8 | 4 | 4 | % of hemolysis at the concentration 300 μg ml^−1 (Human erythrocytes): 7.11%; EH10 (Human erythrocytes; human erythrocytes, concentration causing 10% of hemolysis): >300 µg/mL; MIC Candida albicans F2 (Candida albicans F2): 8 µg/mL; MIC Candida albicans F5 (Candida albicans F5): 8 µg/mL; MIC Candida albicans Gu4 (Candida albicans Gu4): 4 µg/mL; MIC Candida albicans Gu5 (Candida albicans Gu5): 4 µg/mL; MIC Candida albicans STY19 (Candida albicans STY19): 4 µg/mL; MIC Candida albicans STY31 (Candida albicans STY31): 8 µg/mL; MIC Candida albicans STY7 (Candida albicans STY7): 8 µg/mL; Cytotoxicity IC50 CCRF-CEM (CCRF-CEM; CCRF-CEM, 120 h, MTT): >100 µg/mL; Cytotoxicity IC50 HepG2 (HepG2; HepG2, 120 h, MTT): >100 µg/mL; Cytotoxicity IC50 LLC-PK1 (LLC-PK1; LLC-PK1, 120 h, MTT): >100 µg/mL
3 | CC1OC(O[C@H]2/C=C/C=C/C=C/C=C/CC/C=C/C=C/[C@H](C)[C@@H](O)[C@@H](C)[C@H](C)OC(=O)C[C@H](O)C[C@H](O)C[C@H](O)CC[C@@H](O)[C@H](O)CC3(O)C[C@H](O)[C@@H](C(=O)O)[C@H](C2)O3)C(O)C(NC(=O)[C@H](N)CC(=O)OC(C)(C)C)C1O (stereo partly drawn) [Compound N41, N-D-(O-tert-butyl)asparagylnystatin A1] | 8 (≈ 7.29 µM) | 4.69 | 8 | 8 (≈ 7.29 µM) | 8 (≈ 7.29 µM) | 2 (≈ 1.82 µM) | 8 | 8 | 8 (≈ 7.29 µM) | 8 (≈ 7.29 µM) | 4 (≈ 3.65 µM) | 8 (≈ 7.29 µM) | 4 (≈ 3.65 µM) | 4 | 4 | 4 (≈ 3.65 µM) | 32 (≈ 29.2 µM) | 16 (≈ 14.6 µM) | 8 (≈ 7.29 µM) | 16 (≈ 14.6 µM) | % of hemolysis at the concentration 60 μg ml^−1 (Human erythrocytes): 0.15%; MIC Candida albicans F2 (Candida albicans F2): 16 µg/mL (≈ 14.6 µM); MIC Candida albicans F5 (Candida albicans F5): 16 µg/mL (≈ 14.6 µM); MIC Candida albicans Gu4 (Candida albicans Gu4): 8 µg/mL (≈ 7.29 µM); MIC Candida albicans Gu5 (Candida albicans Gu5): 8 µg/mL (≈ 7.29 µM); MIC Candida albicans STY19 (Candida albicans STY19): 0.5 µg/mL (≈ 0.456 µM); MIC Candida albicans STY31 (Candida albicans STY31): 16 µg/mL (≈ 14.6 µM); MIC Candida albicans STY7 (Candida albicans STY7): 16 µg/mL (≈ 14.6 µM); Cytotoxicity IC50 CCRF-CEM (CCRF-CEM): >100 µg/mL; Cytotoxicity IC50 HepG2 (HepG2): >100 µg/mL; Cytotoxicity IC50 LLC-PK1 (LLC-PK1): >100 µg/mL
